{"source": "ChEMBL document CHEMBL1131278", "about": "“Synthesis and in vitro cancer cell growth inhibitory activity of monocyclic model compounds containing spongistatin triene side-chains” (Bioorg Med Chem Lett, 1998)", "type_in_all_cases": "functional", "key": {"BXPC-3": {"system": "BXPC-3", "assay": "In vitro growth inhibitory activity against cancer cell line Pancreas-a BXPC-3", "settings": "Homo sapiens"}, "NCI-H460": {"system": "NCI-H460", "assay": "In vitro growth inhibitory activity against cancer cell line Lung-NSC NCI-H460", "settings": "Homo sapiens"}, "DU-145": {"system": "DU-145", "assay": "In vitro growth inhibitory activity against cancer cell line Prostate DU-145", "settings": "Homo sapiens"}, "SK-N-SH": {"system": "SK-N-SH", "assay": "In vitro growth inhibitory activity against cancer cell line Neuroblast SK-N-SH", "settings": "Homo sapiens"}, "FaDu": {"system": "FaDu", "assay": "In vitro growth inhibitory activity against cancer cell line Pharynx-sq FADU", "settings": "Homo sapiens"}, "SW-1736": {"system": "SW-1736", "assay": "In vitro growth inhibitory activity against cancer cell line Thyroid ca SW 1736", "settings": "Homo sapiens"}, "Tubulin alpha chain": {"molecular_target": "Tubulin alpha chain (Sus scrofa, UniProt P02550)", "sequence (P02550 whole entry, looked up)": "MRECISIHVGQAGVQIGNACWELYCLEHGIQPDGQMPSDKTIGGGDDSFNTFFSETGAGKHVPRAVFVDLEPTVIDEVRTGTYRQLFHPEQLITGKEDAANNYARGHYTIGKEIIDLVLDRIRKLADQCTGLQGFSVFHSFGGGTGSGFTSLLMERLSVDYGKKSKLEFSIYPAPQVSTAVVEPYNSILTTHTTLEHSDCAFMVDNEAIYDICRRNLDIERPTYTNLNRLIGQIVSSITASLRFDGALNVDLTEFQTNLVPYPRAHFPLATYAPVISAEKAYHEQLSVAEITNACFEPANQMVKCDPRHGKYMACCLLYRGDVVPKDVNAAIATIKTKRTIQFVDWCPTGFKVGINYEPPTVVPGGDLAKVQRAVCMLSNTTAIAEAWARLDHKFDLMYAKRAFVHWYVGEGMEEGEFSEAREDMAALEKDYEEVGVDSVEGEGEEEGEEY", "assay": "Compound was tested for its ability to inhibit the glutamate induced polymerization of tubulin"}}}
{"smiles": "C=C/C=C/[C@@H](O)CC(=C)C[C@H]1O[C@H](OC)[C@H](OCc2ccccc2)[C@@H](OCc2ccccc2)[C@@H]1OCc1ccccc1", "values": [{"measurement": "GI50", "setting": "BXPC-3", "value": 0.25, "unit": "µg/mL"}, {"measurement": "GI50", "setting": "NCI-H460", "value": 0.26, "unit": "µg/mL"}, {"measurement": "GI50", "setting": "DU-145", "value": 0.32, "unit": "µg/mL"}, {"measurement": "GI50", "setting": "SK-N-SH", "value": 0.31, "unit": "µg/mL"}, {"measurement": "GI50", "setting": "FaDu", "value": 0.27, "unit": "µg/mL"}, {"measurement": "GI50", "setting": "SW-1736", "value": 0.7, "unit": "µg/mL"}]}
{"smiles": "C=C(Cl)/C=C/[C@@H](O)CC(=C)C[C@H]1O[C@H](OC)[C@H](OCc2ccccc2)[C@@H](OCc2ccccc2)[C@@H]1OCc1ccccc1", "values": [{"measurement": "GI50", "setting": "BXPC-3", "value": 3.2, "unit": "µg/mL"}, {"measurement": "GI50", "setting": "NCI-H460", "value": 6.6, "unit": "µg/mL"}, {"measurement": "GI50", "setting": "DU-145", "value": "> 10", "unit": "µg/mL"}, {"measurement": "GI50", "setting": "SK-N-SH", "value": 2.2, "unit": "µg/mL"}, {"measurement": "GI50", "setting": "FaDu", "value": 5, "unit": "µg/mL"}, {"measurement": "GI50", "setting": "SW-1736", "value": 5.8, "unit": "µg/mL"}]}
{"smiles": "C=C(Cl)/C=C/[C@@H](O)C(C)C(=C)C[C@H]1O[C@@H]2[C@H](C)[C@@H](OC(=O)C[C@H]3C[C@H](OC(C)=O)C[C@@]4(C[C@@](C)(O)C[C@H](CC(=C)[C@@H](C)[C@H](OC(C)=O)[C@H](C)C(=O)C[C@@H]5C[C@H](OC)C[C@@]6(C[C@@H](O)C[C@H](/C=C\\CCC[C@H]7O[C@](O)(C[C@H](O)[C@H]7C)[C@H]2O)C6)O5)O4)O3)[C@@H]1O", "note": "(stereo partly drawn) [Spongistatin-1]", "values": [{"measurement": "IC50", "setting": "Tubulin alpha chain", "value": 3.6, "unit": "µM"}]}
